Measured values from patent US20100240713A1, “AROMATIC AND HETEROAROMATIC COMPOUNDS USEFUL IN TREATING IRON DISORDERS” (XENON PHARMACEUTICALS INC., priority 2007, published 2010).
pIC50: −log10 of the molar value. Where a name gives a salt, the structure may show the parent alone.

Target: T1, DMT1 (Homo sapiens, UniProt P49281)
T1 sequence (P49281 1-568): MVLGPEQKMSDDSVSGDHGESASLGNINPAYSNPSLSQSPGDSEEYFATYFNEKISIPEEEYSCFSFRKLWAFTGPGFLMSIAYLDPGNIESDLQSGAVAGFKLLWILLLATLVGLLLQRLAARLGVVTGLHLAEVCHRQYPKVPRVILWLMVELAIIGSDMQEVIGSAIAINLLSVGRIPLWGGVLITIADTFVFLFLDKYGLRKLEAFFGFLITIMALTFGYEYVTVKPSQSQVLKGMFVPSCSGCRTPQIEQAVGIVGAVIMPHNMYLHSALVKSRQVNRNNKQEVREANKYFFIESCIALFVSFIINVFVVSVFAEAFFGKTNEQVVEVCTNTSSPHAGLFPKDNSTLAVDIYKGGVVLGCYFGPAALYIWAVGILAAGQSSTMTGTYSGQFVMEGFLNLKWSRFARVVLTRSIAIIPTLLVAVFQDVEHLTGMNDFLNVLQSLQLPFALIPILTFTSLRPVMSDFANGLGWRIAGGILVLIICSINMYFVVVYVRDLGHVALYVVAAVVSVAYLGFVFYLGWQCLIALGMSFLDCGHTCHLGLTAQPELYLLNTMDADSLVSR
Experiment: DMT1 activity assay (IC50 activity level, Table 1)
Assay type: cell-based
Settings: inhibition of DMT1
Excerpt: This example discloses various in vitro assay for testing and profiling test agents against DMT1 stably expressed in cells of either an endogenous or recombinant origin. These assays can use stable cell lines overexpressing DMT1 or intestinal cells and intestinal tissue expressing endogenous DMT1. DMT1 function could also be assessed in other cell types that express DMT1. Of greatest relevance would be the erythrocytes (e.g. K562 cells) or hepatocytes (e.g. […]).
DMT1 function can be assessed in a number of ways, including monitoring fluorescence changes of an iron fluorophore (e.g. calcein), monitoring uptake of radiolabelled iron (^55Fe or ^59Fe) (Picard et al., J. Biol. Chem., 2000, 275(46):35738-45 and Wetli et al., Chem. Biol. 2006 September; 13(9):965-72), or by assessing the current or transport of iron and other metals into the cells or tissues using standard electrophysiological techniques (Gunshin et al., Nature, 1997, 388(6641):482-8.).
Variations of these assays involve alterations of incubation times, the iron status of the cells and tissues (which may be modulated by chemical chelators or by harvesting from iron deficient animals), the metal cation detected and the pH of the reaction can generally be made by conventional techniques known to those skilled in the art.
The Example numbers provided in Table 1 correspond to the Examples herein: […]

Compound	pIC50
N=C(N)SCc1ccc2ccccc2c1CSC(=N)N [Example 3.20, naphthalene-1,2-diylbis(methylene)dicarbamimidothioate dihydrobromide]	≤ 6.00
N=C(N)SCc1nnc(CSC(=N)N)n1N [Example 3.7, (4-amino-4H-1,2,4-triazole-3,5-diyl)bis(methylene)dicarbamimidothioate dihydrochloride]	≤ 6.00
N=C(N)Sc1cccc(SC(=N)N)c1 [Example 5, 1,3-phenylene dicarbamimidothioate dihydroiodide]	≤ 6.00
Cc1c(C)c(CSC(=N)N)c(C)c(CSC(=N)N)c1C [Example 3.5, (2,4,5,6-tetramethyl-1,3-phenylene)bis(methylene)dicarbamimidothioate dihydrochloride]	≤ 6.00
Cc1c(CSC(=N)N)c(C)c(CSC(=N)N)c(C)c1CSC(=N)N [Example 3.11, (2,4,6-trimethylbenzene-1,3,5-triyl)tris(methylene) tricarbamimidothioate trihydrobromide]	≤ 6.00
Cc1cc(C)c(CNC(=N)N)c(C)c1CNC(=N)N [Example 1, N-(3-guanidinomethyl-2,4,6-trimethylbenzyl)guanidine, bis(p-toluenesulfonate)]	≤ 6.00
N=C(N)SCc1c(Cl)c(Cl)c(Cl)c(CSC(=N)N)c1Cl [Example 3.6, (2,4,5,6-tetrachloro-1,3-phenylene)bis(methylene)dicarbamimidothioate dihydrochloride]	≤ 6.00
N=C(N)SCc1cccc2cccc(CSC(=N)N)c12 [Example 3.13, naphthalene-1,8-diylbis(methylene)dicarbamimidothioate dihydrobromide]	≤ 6.00
N=C(N)SCc1sc(CSC(=N)N)c(-c2ccccc2)c1-c1ccccc1 [Example 3.10, (3,4-diphenylthiophene-2,5-diyl)bis(methylene)dicarbamimidothioate dihydrobromide]	≤ 6.00
N=C(N)SC(=O)c1sc(C(=O)SC(=N)N)c(Cl)c1Cl [Example 9, 2-(5-carbamimidoylsulfanecarbonyl-3,4-dichlorothiophene-2-carbonyl)isothiourea dihydrochloride]	≤ 6.00
N=C(N)SCc1n[nH]c(CSC(=N)N)n1 [Example 3.8, (1H-1,2,4-triazole-3,5-diyl)bis(methylene)dicarbamimidothiodate dihydrochloride]	≤ 6.00
Cc1c(C)c(C)c(CSC(=N)N)c(CSC(=N)N)c1C [Example 3.22, (3,4,5,6-tetramethyl-1,2-phenylene)bis(methylene)dicarbamimidothioate dihydrobromide]	≤ 6.00
CC(C)(SC(=N)N)c1cccc(C(C)(C)SC(=N)N)c1 [Example 6, 2-{1-[3-(1-carbamimidoylsulfanyl-1-methylethyl)phenyl]-1-methylethyl}-isothiourea dihydrobromide]	≤ 6.00
Cc1c(O)c(C)c(CSC(=N)N)c(C)c1CSC(=N)N [Example 3.19, (5-hydroxy-2,4,6-trimethyl-1,3-phenylene)bis(methylene) dicarbamimidothioate dihydrochloride]	6.00 to 7.00
Cc1c(CSC(=N)N)sc2sc(CSC(=N)N)c(C)c12 [Example 6.4, (3,4-dimethylthieno[2,3-b]thiophene-2,5-diyl)bis(methylene)dicarbamimidothioate dihydrobromide]	≤ 6.00
Cc1cc(C)c(C(C)SC(=N)N)c(C)c1C(C)SC(=N)N (centres unmarked) [Example 6.1, 2-{1-[3-(1-carbamimidoylsulfanylethyl)-2,4,6-trimethylphenyl]ethyl}-isothiourea dihydrobromide]	6.00 to 7.00
CCOC(=O)c1cc(C(=O)OCC)c(CSC(=N)N)cc1CSC(=N)N [Example 3.4, diethyl 4,6-bis(carbamimidoylthiomethyl)isophthalate dihydrobromide]	≤ 6.00

Second part, the compound after the results:

pIC50	Compound
≤ 6.00	N#Cc1c(CSC(=N)N)cccc1CSC(=N)N [Example 3.14, (2-cyano-1,3-phenylene)bis(methylene)dicarbamimidothioate dihydrobromide]
6.00 to 7.00	Cc1cc(C)c(CSC(=N)N)c(C)c1CSC(=N)N [Example 3, (2,4,6-trimethyl-1,3-phenylene)bis(methylene)dicarbamimidothioate dihydrochloride]
≤ 6.00	N=C(N)SCc1ccccc1CSC(=N)N [Example 3.15, (1,2-phenylene)bis(methylene)dicarbamimidothioate dihydrobromide]
≤ 6.00	COc1c(CSC(=N)N)cc(C)cc1CSC(=N)N [Example 3.18, (2-methoxy-5-methyl-1,3-phenylene)bis(methylene)dicarbamimidothioate dihydrobromide]
≤ 6.00	Cc1nc(C)c(CSC(=N)N)c(C)c1CSC(=N)N [Example 8, (2,4,6-trimethylpyridine-3,5-diyl)bis(methylene)dicarbamimidothioate dihydrochloride]
≤ 6.00	N=C(N)SCc1ccc(CSC(=N)N)s1 [Example 3.9, thiophene-2,5-diylbis(methylene)dicarbamimidothioate dihydrochloride]
6.00 to 7.00	Cc1c(CSC(=N)N)cccc1CSC(=N)N [Example 3.21, (2-methyl-1,3-phenylene)bis(methylene)dicarbamimidothioate dihydrobromide]
≤ 6.00	Cc1c(CSC(=N)N)cc(CSC(=N)N)c(C)c1Br [Example 3.17, (5-bromo-4,6-dimethyl-1,3-phenylene)bis(methylene) dicarbamimidothioate dihydrochloride]
≤ 6.00	N=C(N)SCc1cccc(CSC(=N)N)c1 [Example 3.2, 1,3-phenylenebis(methylene)dicarbamimidothioate dihydrobromide]
≤ 6.00	COc1cc(CSC(=N)N)cc(CSC(=N)N)c1 [Example 6.6, (5-methoxy-1,3-phenylene)bis(methylene)dicarbamimidothioate dihydrobromide]
≤ 6.00	COc1ccc(CSC(=N)N)cc1CSC(=N)N [Example 6.5, (4-methoxy-1,3-phenylene)bis(methylene)dicarbamimidothioate dihydrobromide]
≤ 6.00	N=C(N)SCc1cccc(CSC(=N)N)n1 [Example 3.12, pyridine-2,6-diylbis(methylene)dicarbamimidothioate dihydrobromide]
≤ 6.00	CC(C)c1cc(C(C)C)c(CSC(=N)N)cc1CSC(=N)N [Example 3.1, (4,6-diisopropyl-1,3-phenylene)bis(methylene)dicarbamimidothioate dihydrobromide]
≤ 6.00	Cc1cc(CSC(=N)N)c(O)c(CSC(=N)N)c1 [Example 6.2, (2-hydroxy-5-methyl-1,3-phenylene)bis(methylene)dicarbamimidothioate dihydrobromide]
≤ 6.00	Cc1c(CSC(=N)N)sc(CSC(=N)N)c1C [Example 6.3, (3,4-dimethylthiophene-2,5-diyl)bis(methylene)dicarbamimidothioate dihydrobromide]
≤ 6.00	Cc1cc(CSC(=N)N)cc(CSC(=N)N)c1 [Example 3.3, (5-methyl-1,3-phenylene)bis(methylene)dicarbamimidothioate dihydrobromide]
6.00 to 7.00	Cc1cc(C)c(CSC(=N)N)cc1CSC(=N)N [Example 3.16, (4,6-dimethyl-1,3-phenylene)bis(methylene)dicarbamimidothioate dihydrochloride]

Tested on: not given
Experiment: not given
Settings: not given

melting point	Compound
204 to 206 °C	Cc1cc(C)c(C(C)SC(=N)N)c(C)c1C(C)SC(=N)N (centres unmarked) (as salt: hydrobromid) [Example 6.1, 2-{1-[3-(1-carbamimidoylsulfanylethyl)-2,4,6-trimethylphenyl]ethyl}-isothiourea dihydrobromide]
208 to 210 °C	N=C(N)SCc1c(Cl)c(Cl)c(Cl)c(CSC(=N)N)c1Cl (as salt: hydrochloride) [Example 3.6, (2,4,5,6-tetrachloro-1,3-phenylene)bis(methylene)dicarbamimidothioate dihydrochloride]
> 250 °C	Cc1cc(C)c(CNC(=N)N)c(C)c1CNC(=N)N (as salt: toluenesulfonate) [Example 1, N-(3-guanidinomethyl-2,4,6-trimethylbenzyl)guanidine, bis(p-toluenesulfonate)]
175 to 178 °C	Cc1c(O)c(C)c(CSC(=N)N)c(C)c1CSC(=N)N (as salt: hydrochloride) [Example 3.19, (5-hydroxy-2,4,6-trimethyl-1,3-phenylene)bis(methylene) dicarbamimidothioate dihydrochloride]
